This passage reports Ki results from patent publication US10160762B2, “6-alkyl dihydropyrazolopyrimidinone compounds as PDE2 inhibitors” (Merck Sharp & Dohme Corp., priority 2015, dated 2018).

Each structure is given as a SMILES string. Read-outs that look alike come from different tables or passages of the source.

The target in the assay is T1, Rhesus PDE2A3 (Macaca mulatta, UniProt B3VTJ2).
T1 construct: made in house; host or cells: AD293 cells, transient transfection; supernatant of sonicated lysate
T1 sequence (B3VTJ2 1-941): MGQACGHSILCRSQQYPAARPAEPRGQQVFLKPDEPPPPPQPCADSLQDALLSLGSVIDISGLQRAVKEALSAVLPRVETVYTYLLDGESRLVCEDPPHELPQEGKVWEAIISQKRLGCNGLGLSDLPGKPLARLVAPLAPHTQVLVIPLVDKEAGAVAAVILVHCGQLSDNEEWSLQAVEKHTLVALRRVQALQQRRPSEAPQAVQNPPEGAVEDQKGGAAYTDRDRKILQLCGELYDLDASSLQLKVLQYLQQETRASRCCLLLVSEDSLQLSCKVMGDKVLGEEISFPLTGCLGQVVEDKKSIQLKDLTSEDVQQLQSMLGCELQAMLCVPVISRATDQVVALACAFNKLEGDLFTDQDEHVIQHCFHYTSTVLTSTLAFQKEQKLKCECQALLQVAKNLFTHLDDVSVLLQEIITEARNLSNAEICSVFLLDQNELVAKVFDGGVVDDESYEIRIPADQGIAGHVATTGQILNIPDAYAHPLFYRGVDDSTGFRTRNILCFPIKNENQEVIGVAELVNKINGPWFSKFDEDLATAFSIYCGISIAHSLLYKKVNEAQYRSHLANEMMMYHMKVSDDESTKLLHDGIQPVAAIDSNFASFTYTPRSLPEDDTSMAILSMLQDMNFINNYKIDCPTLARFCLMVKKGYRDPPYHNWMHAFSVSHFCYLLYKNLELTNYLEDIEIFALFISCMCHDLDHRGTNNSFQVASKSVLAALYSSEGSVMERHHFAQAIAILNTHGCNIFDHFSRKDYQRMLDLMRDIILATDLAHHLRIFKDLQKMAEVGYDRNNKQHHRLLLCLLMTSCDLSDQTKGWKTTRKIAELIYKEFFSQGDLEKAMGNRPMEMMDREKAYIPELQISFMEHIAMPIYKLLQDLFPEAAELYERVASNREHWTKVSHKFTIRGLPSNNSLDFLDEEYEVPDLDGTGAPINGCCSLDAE
The assay can be described thus: PDE2 fluorescence polarization (IMAP FP) inhibition assay, rhesus PDE2A3. It counts as biochemical, rhesus macaque. On the procedure: The activity of the compounds in accordance with the present invention as PDE2 inhibitors may be readily determined using a fluorescence polarization (FP) methodology (Huang, W., et al., J. Biomol Screen, 2002, 7: 215).
The PDE2 inhibitory activity of the compounds of the present invention was determined in accordance with the following experimental method. Rhesus PDE2A3 was amplified from rhesus macaque brain cDNA (Biochain Institute, Hayward, Calif.) using primers based on human PDE2A sequence (accession NM_002599.3) where the forward primer containing a Kozak consensus was 5′-[…]-3′ and the reverse primer was 5′-[…]-3′. Amplification with Easy-A High-Fidelity PCR cloning enzyme (Stratagene, La Jolla, Calif.) was 95° C. for 2 minutes followed by thirty three cycles of 95° C. for 40 seconds, 52° C. for 30 seconds, and 72° C. for 2 minutes 48 seconds. Final extension was 72° C. for 7 minutes. The PCR product was TA cloned into pcDNA3.3-TOPO (Invitrogen, Carlsbad, Calif.) according to standard protocol. A consensus sequence was developed from multiple clones and then deposited into GenBank (EU812167). AD293 cells (Stratagene, La Jolla, Calif.) with 70-80% confluency were transiently transfected with rhesus PDE2A3/pcDNA3.3-TOPO using Lipofectamine 2000 according to manufacturer specifications (Invitrogen, Carlsbad, Calif.). Cells were harvested 48 hours post-transfection and lysed by sonication (setting 3, 10×5 sec pulses) in a buffer containing 20 mM HEPES pH 7.4, 1 mM EDTA and Complete Protease Inhibitor Cocktail Tablets (Roche, Indianapolis, Ind.). Lysate was collected by centrifugation at 75,000×g for 20 minutes at 4° C. and supernatant utilized for evaluation of PDE2 activity. The fluorescence polarization assay for cyclic nucleotide phosphodiesterases was performed using an IMAP® FP kit supplied by Molecular Devices, Sunnyvale, Calif. (product #R8139). […] Assays were performed at room temperature in 384-well microtiter plates with an incubation volume of 20.2 μL. Solutions of test compounds were prepared in DMSO and serially diluted with DMSO to yield 8 μL of each of 10 solutions differing by 3-fold in concentration, at 32 serial dilutions per plate. […] 0% of inhibition is determined by using DMSO (1% final concentrations).
A Labcyte Echo 555 (Labcyte, Sunnyvale, Calif.) is used to dispense 200 nL from each well of the titration plate to the 384 well assay plate. Ten microliters of a solution of enzyme (1/2000 final dilution from aliquots; sufficient to produce 20% substrate conversion) was added to the assay plate. Next 10 uL of a separate solution of the substrate FAM-labeled cAMP (50 nM final concentration product # R7506 from Molecular Devices) and the activator cGMP (1 uM final concentration), prepared in the assay buffer (10 mM Tris HCl, pH 7.2, 10 mM MgCl2, 0.05% NaN3 0.01% Tween-20, and 1 mM DTT) was added to the assay plate and shaken to mix. The reaction is allowed to proceed at room temperature for 60 minutes. A binding solution is then made from the kit components, comprised of 80% Solution A, 20% Solution B and binding reagent at a volume of 1/600 the total binding solution. The enzymatic reaction is stopped by addition of 60 μL of the binding solution to each well of the assay plates and the plates are sealed and shaken for 30 seconds. The plate was incubated at room temperature for at least one hour prior to determining the fluorescence polarization (FP). The parallel and perpendicular fluorescence of each well of the plate was measured using a Tecan Genios Pro plate reader (Tecan, Switzerland) or Perkin Elmer EnVision™ plate reader (Waltham, Mass.). Fluorescence polarization (mP) was calculated from the parallel (S) and perpendicular (P) fluorescence of each sample well and the analogous values for the median control well, containing only substrate (So and Po), using the following equation: Polarization(mP)=1000*(S/So−P/Po)/(S/So+P/Po).

Setting [1] is: Lab B, read-out: Rhesus PDE2 Ki (nM) Lab B.
[2] abbreviates: Lab A, read-out: Rhesus PDE2 Ki (nM) Lab A.

A word on the Ki: it is a dissociation constant, usually derived from enzyme kinetics or from competition with a known ligand. Turning to `Cc1nc2c(c(C#N)nn2C(C)c2ccc(C(F)(F)F)cc2)c(=O)[nH]1` (single isomer, unassigned) [Example 253], the Ki under setting [1] is 703 nM.
Same read-out and setting: then `Cc1nc2c(c(C)nn2C(C)C(O)c2ccc(C(F)(F)F)cc2)c(=O)[nH]1` (stereo not drawn) [Example 332, 1-(1-Hydroxy-1-(4-(trifluoromethyl)phenyl)propan-2-yl)-3,6-dimethyl-1H-pyrazolo[3,4-d]pyrimidin-4(5H)-one], with 8880 nM; and `Cc1nc2c(c(CF)nn2C(C)c2ccc(S(F)(F)(F)(F)F)cc2)c(=O)[nH]1` (single isomer, unassigned) [Example 199], with 210 nM; and `Cc1nc2c(c(CO)nn2C(c2ccc(C(F)(F)F)c(F)c2)C(C)C)c(=O)[nH]1` (single isomer, unassigned) [Example 86, (R)- or (S)-1-(1-(3-Fluoro-4-(trifluoromethyl)phenyl)-2-methylpropyl)-3-(hydroxymethyl)-6-methyl-1H-pyrazolo[3,4-d]pyrimidin-4(5H)-one], with 436 nM.
Still for that read-out and setting: as for `Cc1nc2c(c(CCN)nn2C(C)c2ccc(C(F)(F)F)cc2)c(=O)[nH]1` (stereo not drawn) [Example 282, 3-(2-Aminoethyl)-6-methyl-1-(1-(4-(trifluoromethyl)phenyl)ethyl)-1H-pyrazolo[3,4-d]pyrimidin-4(5H)-one], the figure is greater than 2970 nM.
Still for that read-out and setting: then `COCc1nc2c(c(CO)nn2C(C)c2ccc(C(F)(F)F)cc2)c(=O)[nH]1` (single isomer, unassigned) [Example 292], with 473 nM; and `Cc1nc2c(c(C)nn2C(C)C(C)(O)c2ccc(C(F)(F)F)cc2)c(=O)[nH]1` (stereo not drawn) [Example 333, 1-(3-Hydroxy-3-(4-(trifluoromethyl)phenyl)butan-2-yl)-3,6-dimethyl-1H-pyrazolo[3,4-d]pyrimidin-4(5H)-one], with roughly 29000 nM; and `Cc1nc2c(c(CS(C)(=O)=O)nn2C(C)c2ccc(C(F)(F)F)cc2)c(=O)[nH]1` (single isomer, unassigned) [Example 273], with 757 nM.
Regarding `Cc1nn(C(C)c2ccc(C(F)(F)F)cc2)c2nc(C3CCOC3)[nH]c(=O)c12` (stereo not drawn) [Example 33, 3-Methyl-6-(tetrahydrofuran-3-yl)-1-(1-(4-(trifluoromethyl)phenyl)ethyl)-1H-pyrazolo[3,4-d]pyrimidin-4(5H)-one], the Ki runs as follows: under setting [2], 386 nM; under setting [1], 531 nM.
For `Cc1nc2c(c(C)nn2C(C)CNc2ccc(C(F)(F)F)cc2)c(=O)[nH]1` (stereo not drawn) [Example 330, 3,6-Dimethyl-1-(1-(4-(trifluoromethyl)phenylamino)propan-2-yl)-1H-pyrazolo[3,4-d]pyrimidin-4(5H)-one], under setting [1], the Ki came out at 2410 nM.
On the same count and under the same terms, then `Cc1nc2c(c(CF)nn2C(c2ccc(C(F)(F)F)cc2)C(C)(C)C)c(=O)[nH]1` (single isomer, unassigned) [Example 233, (R)- or (S)-1-(2,2-Dimethyl-1-(4-(trifluoromethyl)phenyl)propyl)-3-(fluoromethyl)-6-methyl-1H-pyrazolo[3,4-d]pyrimidin-4(5H)-one], with 678 nM; and `CC(c1ccc(C(F)(F)F)cc1)n1nc(CO)c2c(=O)[nH]c(-c3ccco3)nc21` (racemic) [Example 294, 6-Furan-2-yl-3-(hydroxymethyl)-1-{1-[4-(trifluoromethyl)phenyl]ethyl}-1,5-dihydro-4H-pyrazolo[3,4-d]pyrimidin-4-one], with roughly 2590 nM.
For `Cc1nn(C(C)c2ccc(C(F)(F)F)cc2)c2nc(CCC(=O)N(C)C)[nH]c(=O)c12` (stereo not drawn) [Example 32, N,N-Dimethyl-3-(3-methyl-4-oxo-1-(1-(4-(trifluoromethyl)phenyl)ethyl)-4,5-dihydro-1H-pyrazolo[3,4-d]pyrimidin-6-yl)propanamide], the inhibitory constant (Ki) is, setting by setting: under setting [2], 275 nM; under setting [1], 416 nM.
Turning to `Cc1nc2c(c(CN)nn2C(C)c2ccc(C(F)(F)F)cc2)c(=O)[nH]1` (single isomer, unassigned) [Example 275], the Ki under setting [1] is 987 nM.
Same read-out and setting: then `COCc1nn(C(C)c2ccc(C(F)(F)F)cc2)c2nc(C)[nH]c(=O)c12` (single isomer, unassigned) [Example 278], with 768 nM.
On to `Cc1nc2c(c(C)nn2CC(O)c2ccc(C(F)(F)F)cc2)c(=O)[nH]1` (stereo not drawn) [Example 335, 1-(2-Hydroxy-2-(4-(trifluoromethyl)phenyl)ethyl)-3,6-dimethyl-1H-pyrazolo[3,4-d]pyrimidin-4(5H)-one], for which the Ki under setting [2] was greater than 1000 nM.
Still for that read-out and setting: then `COCCc1nc2c(c(C)nn2C(C)c2ccc(C(F)(F)F)cc2)c(=O)[nH]1` (stereo not drawn) [Example 34, 6-(2-Methoxyethyl)-3-methyl-1-(1-(4-(trifluoromethyl)phenyl)ethyl)-1H-pyrazolo[3,4-d]pyrimidin-4(5H)-one], with 267 nM.
Regarding `CC(c1ccc(C(F)(F)F)cc1)n1nc(CO)c2c(=O)[nH]c(-c3cnn(C)c3)nc21` (racemic) [Example 295, 3-(Hydroxymethyl)-6-(1-methyl-1H-pyrazol-4-yl)-1-{1-[4-(trifluoromethyl)phenyl]ethyl}-1,5-dihydro-4H-pyrazolo[3,4-d]pyrimidin-4-one], under setting [1], the Ki was greater than 2970 nM.
Consider `Cc1nc2c(c(C(F)F)nn2C(C)c2ccc(C(F)(F)F)cc2)c(=O)[nH]1` (single isomer, unassigned) [Example 175], for which the Ki under setting [1] is 419 nM.
Same read-out and setting: then `Cc1nc2c(c(C)nn2C(C)CN(C)c2ccc(C(F)(F)F)cc2)c(=O)[nH]1` (stereo not drawn) [Example 331, 3,6-Dimethyl-1-(1-(methyl(4-(trifluoromethyl)phenyl)amino)propan-2-yl)-1H-pyrazolo[3,4-d]pyrimidin-4(5H)-one], with 1440 nM; and `Cc1nc2c(c(CO)nn2C(c2ccc(C(F)(F)F)cc2)C2(C)CC2)c(=O)[nH]1` (single isomer, unassigned) [Example 25, (S)- or (R)-3-(Hydroxymethyl)-6-methyl-1-((1-methylcyclopropyl)(4-(trifluoromethyl)phenyl)methyl)-1H-pyrazolo[3,4-d]pyrimidin-4(5H)-one], with 160 nM.
The same measure, in the same setting: then `Cc1nc2c(c(CN)nn2C(C)c2ccc(C(F)(F)F)cc2)c(=O)[nH]1` (single isomer, unassigned) [Example 274], with roughly 14500 nM.
